In brackets after ≈: the same amount, converted by molar mass. Where two headings read alike, the source gives them in different places.
How the values were obtained:
Plasmodium falciparum = assay: Malaria bioassay; assay type: cell-based
Trypanasoma cruzi = assay: Chagas disease bioassay; assay type: cell-based, T. cruzi; details: Trypanosoma cruzi
[1] = test system: L. donovani amastigotes (LD-1S/MHOM/SD/00-strain 1S); assay type: cell-based; details: Leishmania donovani, read-out: IC50 L. donovani
Leishmania = details: cited from earlier work

SMILES	IC50 (Plasmodium falciparum; read-out: IC50 P. falciparum) [µg/mL]	IC50 (Trypanasoma cruzi; read-out: IC50 T. cruzi) [µg/mL]	also measured
O=C1CCC2(Oc3cccc4cccc(c34)O2)c2c(O)ccc(O)c21 [Compound 3, palmarumycin CP17]	> 10	> 10	
C[C@@H]1[C@H](O)[C@@H](C)/C=C/C=C/C=C/C=C/C=C/C=C/C=C/[C@H](O[C@@H]2O[C@H](C)[C@@H](O)[C@H](N)[C@@H]2O)C[C@@H]2O[C@](O)(C[C@@H](O)C[C@@H](O)[C@H](O)CC[C@@H](O)C[C@@H](O)CC(=O)O[C@H]1C)C[C@H](O)[C@H]2C(=O)O [amphotericin B]			IC50 [1]: 90 nM
O=C1C=C[C@]23Oc4ccc(O)c5c4[C@](CCC5=O)(Oc4cccc1c42)O3 [Compound 1, preussomerin EG1]		> 10	
O=C1C=CC(=O)C2=C1[C@@H](O)CCC21Oc2cccc3cccc(c23)O1 [Compound 4, 4(S)-hydroxy-2,3-dihydro-2(H)-spiro[naphthalene-1(4H),2'-naphtho[1,8-de][1,3]dioxin]-5,8-dione]	> 10	> 10	
Oc1cccc2c1[C@@H](O)CCC21Oc2cccc3cccc(c23)O1 [Compound 5, CJ-12,371]	> 10		
COc1cc(OC)c(-c2c(C)cc3cccc(OC)c3c2O)c2c1C(C)=N[C@@H](C)C2 [ancistrotanzanine A]			antileishmanial activity IC50 (Leishmania): 1.8 µg/mL
COc1cc(OC)c(-c2ccc(OC)c3c(OC)cc(C)cc23)c2c1C(C)=N[C@@H](C)C2 [ancistrotanzanine B]			antileishmanial activity IC50 (Leishmania): 1.6 µg/mL
CC1CS(=O)(=O)CCN1/N=C/c1ccc([N+](=O)[O-])o1 (stereo not drawn) [nifurtimox, reference compound]			IC50 (Trypanasoma cruzi; read-out: IC50 (positive control, Chagas disease bioassay)): 3 to 5 µg/mL (≈ 10.4 to 17.4 µM)
CCN(CC)CCCC(C)Nc1ccnc2cc(Cl)ccc12 (stereo not drawn) [chloroquine, reference compound]			IC50 (Plasmodium falciparum; read-out: IC50 (positive control, malaria bioassay)): 80 to 100 nM
O=C1CCC2(Oc3cccc4cccc(c34)O2)c2cccc(O)c21 [Compound 2, palmarumycin CP2]	> 10		
